Assay results: ChEMBL document CHEMBL1201861, “Genomics of Drug Sensitity in Cancer screening data, Wellcome Trust Sanger Institute”

How the values were obtained:
Test in all cases: cells
NCI-H661 = assay type: functional, cell-based, Homo sapiens; conditions: Homo sapiens, NCI-H661;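 also: cell viability assay read-out, IC50 being the concentration that inhibits growth of the cells by half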
Description: SANGER: Inhibition of human NCI-H661 cell growth in a cell viability assay.

COLO-741 = assay type: functional, cell-based, Homo sapiens; conditions: Homo sapiens, COLO-741
Description: SANGER: Inhibition of human COLO-741 cell growth in a cell viability assay.

GI-ME-N = assay type: functional, cell-based, Homo sapiens; conditions: Homo sapiens, GI-ME-N;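 also: growth inhibition of human GI-ME-N cells, read out with a cell viability assay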
Description: SANGER: Inhibition of human GI-ME-N cell growth in a cell viability assay.

ES5 = assay type: functional, cell-based, Homo sapiens; conditions: Homo sapiens, ES5;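 also: growth inhibition of human ES5 cells, read out by a cell viability assay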
Description: SANGER: Inhibition of human ES5 cell growth in a cell viability assay.

A253 cell line = assay type: functional, cell-based, Homo sapiens; conditions: Homo sapiens, A253;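 also: growth inhibition of A253 cells, read out with a cell viability assay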
Description: SANGER: Inhibition of human A253 cell growth in a cell viability assay.

HT = assay type: functional, cell-based; conditions: Homo sapiens
Description: SANGER: Inhibition of human HT cell growth in a cell viability assay.

UACC-893 = assay type: functional, cell-based, Homo sapiens; conditions: Homo sapiens, UACC-893
Description: SANGER: Inhibition of human UACC-893 cell growth in a cell viability assay.

GMS-10 = assay type: functional, cell-based, Homo sapiens; conditions: Homo sapiens, GMS-10;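 also: growth inhibition of GMS-10 cells, read out as cell viability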
Description: SANGER: Inhibition of human GMS-10 cell growth in a cell viability assay.

NCI-H1651 = assay type: functional, cell-based, Homo sapiens; conditions: Homo sapiens, NCI-H1651;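 also: Read-out is a cell viability assay, with IC50 expressing inhibition of NCI-H1651 cell growth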
Description: SANGER: Inhibition of human NCI-H1651 cell growth in a cell viability assay.

CAL-51 = assay type: functional, cell-based, Homo sapiens; conditions: Homo sapiens, CAL-51;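 also: human CAL-51 cell line, growth inhibition read out via a cell viability assay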
Description: SANGER: Inhibition of human CAL-51 cell growth in a cell viability assay.

NCI-H520 = assay type: functional, cell-based, Homo sapiens; conditions: Homo sapiens, NCI-H520;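 also: growth inhibition of NCI-H520 cells, measured by a cell viability assay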
Description: SANGER: Inhibition of human NCI-H520 cell growth in a cell viability assay.

LU-139 = assay type: functional, cell-based; conditions: Homo sapiens
Description: SANGER: Inhibition of human LU-139 cell growth in a cell viability assay.

KP-N-YS = assay type: functional, cell-based; conditions: Homo sapiens;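 also: cell viability assay measuring inhibition of cell line growth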
Description: SANGER: Inhibition of human KP-N-YS cell growth in a cell viability assay.

NCI-H1770 = assay type: functional, cell-based; conditions: Homo sapiens;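 also: growth inhibition of NCI-H1770 cells determined with a viability readout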
Description: SANGER: Inhibition of human NCI-H1770 cell growth in a cell viability assay.

CAL-120 = assay type: functional, cell-based, Homo sapiens; conditions: Homo sapiens, CAL-120;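 also: cell growth inhibition, read out as cell viability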
Description: SANGER: Inhibition of human CAL-120 cell growth in a cell viability assay.

OCUB-M = assay type: functional, cell-based, Homo sapiens; conditions: Homo sapiens, OCUB-M;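 also: growth inhibition of the cancer cell line, read out through a cell viability assay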
Description: SANGER: Inhibition of human OCUB-M cell growth in a cell viability assay.

NCI-H209 = assay type: functional, cell-based; conditions: Homo sapiens;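 also: growth inhibition of human NCI-H209 cells, measured by a cell viability assay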
Description: SANGER: Inhibition of human NCI-H209 cell growth in a cell viability assay.

MN-60 = assay type: functional, cell-based; conditions: Homo sapiens;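 also: growth inhibition of the MN-60 cell line, determined with a cell viability assay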
Description: SANGER: Inhibition of human MN-60 cell growth in a cell viability assay.

KNS-42 = assay type: functional, cell-based, Homo sapiens; conditions: Homo sapiens, KNS-42;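 also: growth inhibition of KNS-42 cells, read out with a cell viability assay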
Description: SANGER: Inhibition of human KNS-42 cell growth in a cell viability assay.

KARPAS-299 = assay type: functional, cell-based; conditions: Homo sapiens
Description: SANGER: Inhibition of human KARPAS-299 cell growth in a cell viability assay.

NCI-N87 = assay type: functional, cell-based, Homo sapiens; conditions: Homo sapiens, NCI-N87;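 also: growth inhibition of human NCI-N87 cells, read out with a cell viability assay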
Description: SANGER: Inhibition of human NCI-N87 cell growth in a cell viability assay.

CAL-85-1 = assay type: functional, cell-based; conditions: Homo sapiens;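 also: growth inhibition of human CAL-85-1 cells, read out with a cell viability assay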
Description: SANGER: Inhibition of human CAL-85-1 cell growth in a cell viability assay.

SK-NEP-1 = assay type: functional, cell-based; conditions: Homo sapiens;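 also: growth inhibition of human SK-NEP-1 cells, read out by a cell viability assay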
Description: SANGER: Inhibition of human SK-NEP-1 cell growth in a cell viability assay.

LB2518-MEL = assay type: functional, cell-based, Homo sapiens; conditions: Homo sapiens, LB2518-MEL;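 also: growth inhibition of human LB2518-MEL cells, measured with a cell viability assay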
Description: SANGER: Inhibition of human LB2518-MEL cell growth in a cell viability assay.

HAL-01 = assay type: functional, cell-based; conditions: Homo sapiens;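 also: growth inhibition of human HAL-01 cells, read out with a cell viability assay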
Description: SANGER: Inhibition of human HAL-01 cell growth in a cell viability assay.

SW626 = assay type: functional, cell-based, Homo sapiens; conditions: Homo sapiens, SW626;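 also: growth inhibition of SW626 cells, measured with a cell viability assay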
Description: SANGER: Inhibition of human SW626 cell growth in a cell viability assay.

KURAMOCHI = assay type: functional, cell-based; conditions: Homo sapiens;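 also: growth inhibition of KURAMOCHI cells, read out with a cell viability assay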
Description: SANGER: Inhibition of human KURAMOCHI cell growth in a cell viability assay.

EW-11 = assay type: functional, cell-based, Homo sapiens; conditions: Homo sapiens, EW-11;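 also: growth inhibition of human EW-11 cells, measured with a cell viability assay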
Description: SANGER: Inhibition of human EW-11 cell growth in a cell viability assay.

NCI-H446 = assay type: functional, cell-based; conditions: Homo sapiens;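 also: growth inhibition of NCI-H446 cells determined by a cell viability assay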
Description: SANGER: Inhibition of human NCI-H446 cell growth in a cell viability assay.

EOL1 = assay type: functional, cell-based; conditions: Homo sapiens;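 also: growth inhibition of EoL-1 cells, read out by a cell viability assay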
Description: SANGER: Inhibition of human EoL-1-cell cell growth in a cell viability assay.

HOP-92 = assay type: functional, cell-based, Homo sapiens; conditions: Homo sapiens, HOP-92;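 also: cell viability readout, with IC50 reflecting inhibition of HOP-92 cell growth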
Description: SANGER: Inhibition of human HOP-92 cell growth in a cell viability assay.

HCC1937 = assay type: functional, cell-based, Homo sapiens; conditions: Homo sapiens, HCC1937;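 also: growth inhibition measured with a cell viability read-out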
Description: SANGER: Inhibition of human HCC1937 cell growth in a cell viability assay.

SK-N-FI = assay type: functional, cell-based, Homo sapiens; conditions: Homo sapiens, SK-N-FI;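 also: cell viability assay measuring growth inhibition of human SK-N-FI cells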
Description: SANGER: Inhibition of human SK-N-FI cell growth in a cell viability assay.

SK-HEP1 = assay type: functional, cell-based, Homo sapiens, SK-HEP-1; conditions: Homo sapiens, SK-HEP1;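 also: cell viability readout used to quantify reduction in proliferation of human SK-HEP-1 cells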
Description: SANGER: Inhibition of human SK-HEP-1 cell growth in a cell viability assay.

NCI-H810 = assay type: functional, cell-based, Homo sapiens; conditions: Homo sapiens, NCI-H810;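 also: IC50 reflects inhibition of cancer cell line growth, read out with a cell viability assay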
Description: SANGER: Inhibition of human NCI-H810 cell growth in a cell viability assay.

NCI-H2126 = assay type: functional, cell-based, Homo sapiens; conditions: Homo sapiens, NCI-H2126;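 also: growth inhibition of the cancer cell line, determined with a cell viability readout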
Description: SANGER: Inhibition of human NCI-H2126 cell growth in a cell viability assay.

COLO-824 = assay type: functional, cell-based, Homo sapiens; conditions: Homo sapiens, COLO-824
Description: SANGER: Inhibition of human COLO-824 cell growth in a cell viability assay.

KYSE-410 = assay type: functional, cell-based, Homo sapiens; conditions: Homo sapiens, KYSE-410;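 also: growth inhibition of KYSE-410 cells, measured through a cell viability readout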
Description: SANGER: Inhibition of human KYSE-410 cell growth in a cell viability assay.

Ca9-22 = assay type: functional, cell-based, Homo sapiens; conditions: Homo sapiens, Ca9-22;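 also: growth inhibition of Ca9-22 cells, read out with a cell viability assay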
Description: SANGER: Inhibition of human Ca9-22 cell growth in a cell viability assay.

D-263MG = assay type: functional, cell-based, Homo sapiens; conditions: Homo sapiens, D-263MG
Description: SANGER: Inhibition of human D-263MG cell growth in a cell viability assay.

Capan-2 = assay type: functional, cell-based, Homo sapiens; conditions: Homo sapiens, Capan-2;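 also: Capan-2 cell growth inhibition, read out with a viability assay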
Description: SANGER: Inhibition of human Capan-2 cell growth in a cell viability assay.

HT-3 = assay type: functional, cell-based, Homo sapiens; conditions: Homo sapiens, HT-3;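 also: growth inhibition measured with a cell viability readout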
Description: SANGER: Inhibition of human HT-3 cell growth in a cell viability assay.

TE-10 = assay type: functional, cell-based, Homo sapiens; conditions: Homo sapiens, TE-10;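 also: growth inhibition of TE-10 cells, measured by a cell viability assay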
Description: SANGER: Inhibition of human TE-10 cell growth in a cell viability assay.

EGI-1 = assay type: functional, cell-based, Homo sapiens; conditions: Homo sapiens, EGI-1;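 also: cell viability readout used to gauge growth inhibition of EGI-1 cells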
Description: SANGER: Inhibition of human EGI-1 cell growth in a cell viability assay.

SNU1 = assay type: functional, cell-based; conditions: Homo sapiens;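 also: growth inhibition of human NCI-SNU-1 cells, measured with a cell viability assay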
Description: SANGER: Inhibition of human NCI-SNU-1 cell growth in a cell viability assay.

GI-1 = assay type: functional, cell-based, Homo sapiens; conditions: Homo sapiens, GI-1
Description: SANGER: Inhibition of human GI-1 cell growth in a cell viability assay.

ES1 = assay type: functional, cell-based, Homo sapiens; conditions: Homo sapiens, ES1;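 also: growth inhibition of ES1 cells, read out with a cell viability assay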
Description: SANGER: Inhibition of human ES1 cell growth in a cell viability assay.

KINGS-1 = assay type: functional, cell-based, Homo sapiens; conditions: Homo sapiens, KINGS-1;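 also: cell viability assay measuring suppression of KINGS-1 cell growth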
Description: SANGER: Inhibition of human KINGS-1 cell growth in a cell viability assay.

LU-134-A = assay type: functional, cell-based; conditions: Homo sapiens
Description: SANGER: Inhibition of human LU-134-A cell growth in a cell viability assay.

HC-1 = assay type: functional, cell-based; conditions: Homo sapiens;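 also: growth inhibition of HC-1 cells measured by a cell viability assay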
Description: SANGER: Inhibition of human HC-1 cell growth in a cell viability assay.

HuTu80 = assay type: functional, cell-based, Homo sapiens, HUTU-80; conditions: Homo sapiens, HuTu80;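 also: growth inhibition of HuTu80 human cells, determined with a cell viability readout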
Description: SANGER: Inhibition of human HUTU-80 cell growth in a cell viability assay.

COc1cc(F)c(F)c(Nc2ccc(I)cc2F)c1NS(=O)(=O)C1(CC(O)CO)CC1 (stereo not given)
IC50 (NCI-H661): > 5000 nM | IC50 (COLO-741): 915 nM | IC50 (GI-ME-N): 1580 nM | IC50 (ES5): > 5000 nM | IC50 (A253 cell line): 3320 nM | IC50 (HT): > 5000 nM | IC50 (UACC-893): > 5000 nM | IC50 (GMS-10): 3800 nM | IC50 (NCI-H1651): > 5000 nM | IC50 (CAL-51): > 5000 nM | IC50 (NCI-H520): > 5000 nM | IC50 (LU-139): > 5000 nM | IC50 (KP-N-YS): > 5000 nM | IC50 (NCI-H1770): > 5000 nM | IC50 (CAL-120): > 5000 nM | IC50 (OCUB-M): > 5000 nM | IC50 (NCI-H209): > 5000 nM | IC50 (MN-60): > 5000 nM | IC50 (KNS-42): > 5000 nM | IC50 (KARPAS-299): > 5000 nM | IC50 (NCI-N87): > 5000 nM | IC50 (CAL-85-1): 3570 nM | IC50 (SK-NEP-1): > 5000 nM | IC50 (LB2518-MEL): 77.5 nM | IC50 (HAL-01): > 5000 nM | IC50 (SW626): 279 nM | IC50 (KURAMOCHI): > 5000 nM | IC50 (EW-11): > 5000 nM | IC50 (NCI-H446): > 5000 nM | IC50 (EOL1): 399 nM | IC50 (HOP-92): 683 nM | IC50 (HCC1937): > 5000 nM | IC50 (SK-N-FI): 1880 nM | IC50 (SK-HEP1): 2050 nM | IC50 (NCI-H810): > 5000 nM | IC50 (NCI-H2126): > 5000 nM | IC50 (COLO-824): > 5000 nM | IC50 (KYSE-410): 3350 nM | IC50 (Ca9-22): 981 nM | IC50 (D-263MG): 431 nM | IC50 (Capan-2): > 5000 nM | IC50 (HT-3): > 5000 nM | IC50 (TE-10): > 5000 nM | IC50 (EGI-1): 1310 nM | IC50 (SNU1): 1240 nM | IC50 (GI-1): > 5000 nM | IC50 (ES1): > 5000 nM | IC50 (KINGS-1): 2690 nM | IC50 (LU-134-A): > 5000 nM

C=C1C(=O)O[C@@H]2C3O[C@]3(C)CC/C=C(\C)CC[C@@H]12 (stereo not given in full)
IC50 (GI-ME-N): > 5000 nM | IC50 (ES5): > 5000 nM | IC50 (A253 cell line): > 5000 nM | IC50 (HT): > 5000 nM | IC50 (LU-139): > 5000 nM | IC50 (KP-N-YS): > 5000 nM | IC50 (NCI-H1770): > 5000 nM | IC50 (OCUB-M): > 5000 nM | IC50 (NCI-H209): > 5000 nM | IC50 (MN-60): > 5000 nM | IC50 (KNS-42): > 5000 nM | IC50 (KARPAS-299): > 5000 nM | IC50 (NCI-N87): > 5000 nM | IC50 (SK-NEP-1): > 5000 nM | IC50 (LB2518-MEL): > 5000 nM | IC50 (HC-1): > 5000 nM | IC50 (HAL-01): > 5000 nM | IC50 (KURAMOCHI): > 5000 nM | IC50 (EW-11): > 5000 nM | IC50 (NCI-H446): > 5000 nM | IC50 (HuTu80): > 5000 nM | IC50 (EOL1): > 5000 nM | IC50 (SK-N-FI): > 5000 nM | IC50 (NCI-H2126): > 5000 nM | IC50 (COLO-824): > 5000 nM | IC50 (D-263MG): > 5000 nM | IC50 (TE-10): > 5000 nM | IC50 (SNU1): > 5000 nM | IC50 (GI-1): > 5000 nM | IC50 (ES1): > 5000 nM | IC50 (KINGS-1): > 5000 nM | IC50 (LU-134-A): > 5000 nM

COc1ccc(-c2ccc3c(N4CCOC[C@@H]4C)nc(N4CCOC[C@@H]4C)nc3n2)cc1CO [AZD-8055]
IC50 (NCI-H661): 1450 nM | IC50 (COLO-741): > 2000 nM | IC50 (GI-ME-N): 1030 nM | IC50 (ES5): 93.5 nM | IC50 (A253 cell line): > 2000 nM | IC50 (HT): 294 nM | IC50 (UACC-893): 929 nM | IC50 (GMS-10): 1750 nM | IC50 (NCI-H1651): > 2000 nM | IC50 (CAL-51): 197 nM | IC50 (NCI-H520): 348 nM | IC50 (LU-139): 23.3 nM | IC50 (KP-N-YS): 431 nM | IC50 (NCI-H1770): 802 nM | IC50 (CAL-120): 860 nM | IC50 (OCUB-M): 827 nM | IC50 (NCI-H209): 54.5 nM | IC50 (MN-60): 678 nM | IC50 (KNS-42): > 2000 nM | IC50 (KARPAS-299): > 2000 nM | IC50 (NCI-N87): > 2000 nM | IC50 (CAL-85-1): 1530 nM | IC50 (SK-NEP-1): 625 nM | IC50 (LB2518-MEL): > 2000 nM | IC50 (HAL-01): 203 nM | IC50 (SW626): > 2000 nM | IC50 (KURAMOCHI): > 2000 nM | IC50 (EW-11): 1620 nM | IC50 (NCI-H446): 1330 nM | IC50 (EOL1): 65.7 nM | IC50 (HOP-92): > 2000 nM | IC50 (HCC1937): > 2000 nM | IC50 (SK-N-FI): 1560 nM | IC50 (SK-HEP1): > 2000 nM | IC50 (NCI-H810): > 2000 nM | IC50 (NCI-H2126): 1680 nM | IC50 (COLO-824): > 2000 nM | IC50 (KYSE-410): 1270 nM | IC50 (Ca9-22): 787 nM | IC50 (D-263MG): 1330 nM | IC50 (Capan-2): > 2000 nM | IC50 (HT-3): 1660 nM | IC50 (TE-10): > 2000 nM | IC50 (EGI-1): 135 nM | IC50 (SNU1): 323 nM | IC50 (GI-1): > 2000 nM | IC50 (ES1): 555 nM | IC50 (KINGS-1): > 2000 nM | IC50 (LU-134-A): 1030 nM
